This assay addresses T1, Human Aryl Hydrocarbon Receptor (AhR) (Homo sapiens, UniProt P35869).
T1 construct: purchased INDIGO Bioscience #1B06001-32; host or cells: AhR Reporter Cell (kit's proprietary reporter cells)
T1 sequence (P35869 11-848): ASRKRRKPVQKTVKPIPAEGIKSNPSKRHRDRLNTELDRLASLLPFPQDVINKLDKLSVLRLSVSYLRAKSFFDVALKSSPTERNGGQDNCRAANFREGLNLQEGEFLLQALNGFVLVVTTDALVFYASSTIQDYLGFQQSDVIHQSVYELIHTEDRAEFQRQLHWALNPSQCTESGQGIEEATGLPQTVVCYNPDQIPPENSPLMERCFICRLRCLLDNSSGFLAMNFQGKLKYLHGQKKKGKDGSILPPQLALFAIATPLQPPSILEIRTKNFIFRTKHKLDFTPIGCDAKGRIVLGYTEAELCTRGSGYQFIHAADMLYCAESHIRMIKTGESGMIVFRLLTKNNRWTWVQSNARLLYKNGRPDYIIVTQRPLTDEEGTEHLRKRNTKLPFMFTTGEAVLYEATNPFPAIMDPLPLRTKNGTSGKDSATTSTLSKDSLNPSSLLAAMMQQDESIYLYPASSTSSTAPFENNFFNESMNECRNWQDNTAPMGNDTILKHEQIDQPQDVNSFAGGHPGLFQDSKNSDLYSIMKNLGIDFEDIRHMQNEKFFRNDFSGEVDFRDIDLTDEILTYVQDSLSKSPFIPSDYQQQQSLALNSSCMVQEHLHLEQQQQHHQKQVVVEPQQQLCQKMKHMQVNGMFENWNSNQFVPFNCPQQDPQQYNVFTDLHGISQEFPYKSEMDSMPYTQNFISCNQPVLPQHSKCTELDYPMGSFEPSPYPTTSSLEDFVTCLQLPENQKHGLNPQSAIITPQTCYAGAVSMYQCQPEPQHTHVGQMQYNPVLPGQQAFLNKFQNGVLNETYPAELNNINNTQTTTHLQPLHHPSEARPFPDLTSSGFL
Briefly: AHR antagonist reporter assay in human cell line (INDIGO AhR Reporter Assay System, kynurenic acid activated). In kind it is cell-based. Conditions: 200 μM kynurenic acid, 24 hours, luciferase; read-out: AhR Reporter Assay KA Antagonist Mode: IC50. The method, then: The AhR reporter assay was performed following the protocol of the Human Aryl Hydrocarbon Receptor (AhR) Reporter Assay System (INDIGO Bioscience, #1B06001-32). AhR Reporter Cell was thawed and pre-incubated in Cell Recovery Medium (CRM) for 6 hours. The media was then removed and the cells were incubated with Compound Screening Medium (CSM) supplemented with 200 μM kynurenic acid for 24 hours in the absence (negative control) or presence of increasing concentrations of test compounds (typical dilution: […], 3.2 nM, 16 nM, 80 nM, 400 nM, 2 μM, 10 μM in duplicates). For positive inhibition control, cells activated with 200 μM kynurenic acid were incubated in the presence of literature AHR antagonists; alternatively un-activated cells were used as positive inhibition control. Following 24 hours incubation, the media was removed and Luciferase Detection Reagent (LDR) added. The firefly luciferase activity was quantified using a plate reader. Results were normalized by positive and negative controls.

These results are taken from patent publication US20240351988A1, “ARYL HYDROCARBON RECEPTOR MODULATORS AND THEIR USE IN THE TREATMENT OF DISEASES AND DISORDERS” (Allianthera (Suzhou) Biopharmaceutical Co., Ltd., priority 2021, published 2024).

“And” between values parts separate entries of the source, which are not always exact repeats. Identical values can stand only once.

With `CN(C)C(=O)CNC(=O)c1cc(-c2ccc(Cl)cc2)nn(-c2cccc(F)c2)c1=O` [Compound 2], the IC50 lay in the range of 100 to 400 nM.
To `CC(=O)N(C)CC(C)NC(=O)c1cc(-c2ccc(Cl)cc2)nn(-c2cccc(F)c2)c1=O` (stereo not shown) [Compound 3] belongs greater than 400 nM; to `NC(=O)c1cc(-c2ccc(Cl)cc2)nn(-c2cccc(F)c2)c1=O` [Compound 4], greater than 400 nM; to `O=C(NC1CNC1)c1cc(-c2ccc(Cl)cc2)nn(-c2cccc(F)c2)c1=O` [Compound 5], greater than 400 nM.
As to `COCCNC(=O)c1cc(-c2ccc(Cl)cc2)nn(-c2cccc(F)c2)c1=O` [Compound 6], the IC50 is greater than 400 nM.
To `COCC(C)NC(=O)c1cc(-c2ccc(Cl)cc2)nn(-c2cccc(F)c2)c1=O` (stereo not shown) [Compound 7] belongs less than 100 nM; to `NC(=O)CNC(=O)c1cc(-c2ccc(Cl)cc2)nn(-c2cccc(F)c2)c1=O` [Compound 8], greater than 400 nM.
As to `CNC(=O)CNC(=O)c1cc(-c2ccc(Cl)cc2)nn(-c2cccc(F)c2)c1=O` [Compound 9], the IC50 is greater than 400 nM.
On to `CC(NC(=O)c1cc(-c2ccc(Cl)cc2)nn(-c2cccc(F)c2)c1=O)C(=O)O` (stereo not shown) [Compound 10], for which the IC50 was greater than 400 nM.
To `CC(NC(=O)c1cc(-c2ccc(Cl)cc2)nn(-c2cccc(F)c2)c1=O)C(N)=O` (stereo not shown) [Compound 11] belongs greater than 400 nM; to `CC(CN)NC(=O)c1cc(-c2ccc(Cl)cc2)nn(-c2cccc(F)c2)c1=O` (stereo not shown) [Compound 14], greater than 400 nM.
With `CNCC(C)NC(=O)c1cc(-c2ccc(Cl)cc2)nn(-c2cccc(F)c2)c1=O` (stereo not shown) [Compound 15] the figure was greater than 400 nM.
With `CC(CN(C)C)NC(=O)c1cc(-c2ccc(Cl)cc2)nn(-c2cccc(F)c2)c1=O` (stereo not shown) [Compound 16] the figure was greater than 400 nM; with `NCCNC(=O)c1cc(-c2ccc(Cl)cc2)nn(-c2cccc(F)c2)c1=O` [Compound 17], greater than 400 nM.
As for `CNCCNC(=O)c1cc(-c2ccc(Cl)cc2)nn(-c2cccc(F)c2)c1=O` [Compound 18], the IC50 was greater than 400 nM.
As to `CN(C)CCNC(=O)c1cc(-c2ccc(Cl)cc2)nn(-c2cccc(F)c2)c1=O` [Compound 19], the IC50 is greater than 400 nM.
With `CC(=O)N(C)CCNC(=O)c1cc(-c2ccc(Cl)cc2)nn(-c2cccc(F)c2)c1=O` [Compound 20] the figure was greater than 400 nM; with `CNC(=O)c1cc(-c2ccc(Cl)cc2)nn(-c2cccc(F)c2)c1=O` [Compound 21], greater than 400 nM; with `CN(CCO)C(=O)c1cc(-c2ccc(Cl)cc2)nn(-c2cccc(F)c2)c1=O` [Compound 22], greater than 400 nM.
On to `CN(CCN)C(=O)c1cc(-c2ccc(Cl)cc2)nn(-c2cccc(F)c2)c1=O` [Compound 23], for which the IC50 was greater than 400 nM.
To `O=C(NC1COC1)c1cc(-c2ccc(Cl)cc2)nn(-c2cccc(F)c2)c1=O` [Compound 24] belongs greater than 400 nM; to `O=C(NC1CCCCNC1=O)c1cc(-c2ccc(Cl)cc2)nn(-c2cccc(F)c2)c1=O` (stereo not shown) [Compound 28], less than 100 nM.
With `CC(=O)N1CC(NC(=O)c2cc(-c3ccc(Cl)cc3)nn(-c3cccc(F)c3)c2=O)C1` [Compound 30] the figure was greater than 400 nM; with `Cn1cc(-n2nc(-c3ccc(Cl)cc3)cc(C(=O)NCC(=O)O)c2=O)cn1` [Compound 33], greater than 400 nM; with `Cn1cc(-n2nc(-c3ccc(Cl)cc3)cc(C(=O)NCC(N)=O)c2=O)cn1` [Compound 34], greater than 400 nM.
For `CNC(=O)CNC(=O)c1cc(-c2ccc(Cl)cc2)nn(-c2cnn(C)c2)c1=O` [Compound 35], the IC50 is greater than 400 nM.
For `CN(C)C(=O)CNC(=O)c1cc(-c2ccc(Cl)cc2)nn(-c2cnn(C)c2)c1=O` [Compound 36], the IC50 was greater than 400 nM.
To `CC(NC(=O)c1cc(-c2ccc(Cl)cc2)nn(-c2cnn(C)c2)c1=O)C(=O)O` (stereo not shown) [Compound 37] belongs greater than 400 nM.
With `CNCCNC(=O)c1cc(-c2ccc(Cl)cc2)nn(-c2cnn(C)c2)c1=O` [Compound 46] the figure was greater than 400 nM.
With `CN(C)CCNC(=O)c1cc(-c2ccc(Cl)cc2)nn(-c2cnn(C)c2)c1=O` [Compound 47], the 50% inhibitory concentration (IC50) was greater than 400 nM.
To `COC[C@H](C)NC(=O)c1cc(-c2ccc(S(C)(=O)=O)cc2)nn(-c2cnn(C)c2)c1=O` [Compound 66] belongs greater than 400 nM.
As for `COC[C@H](C)NC(=O)c1cc(-c2ccc(C)cn2)nn(-c2cnn(C)c2)c1=O` [Compound 67], the IC50 was > 400 nM and < 100 nM.
To `COC[C@H](C)NC(=O)c1cc(-c2ccc(C)cc2)nn(-c2cnn(C)c2)c1=O` [Compound 68] belongs 100 to 400 nM; to `COC[C@H](C)NC(=O)c1cc(-c2ccc(OC(F)(F)F)cc2)nn(-c2cnn(C)c2)c1=O` [Compound 69], less than 100 nM.
With `COC[C@H](C)NC(=O)c1cc(-c2ccc(OC)cc2)nn(-c2cnn(C)c2)c1=O` [Compound 74] the figure was 100 to 400 nM.
Regarding `COC[C@H](C)NC(=O)c1cc(-c2ccc(N(C)C)nc2)nn(-c2cnn(C)c2)c1=O` [Compound 75], the IC50 is greater than 400 nM.
To `COC[C@H](C)NC(=O)c1cc(-c2cnc(C3CC3)s2)nn(-c2cnn(C)c2)c1=O` [Compound 77] belongs greater than 400 nM; to `COC[C@H](C)NC(=O)c1cc(-c2cnc(C)s2)nn(-c2cnn(C)c2)c1=O` [Compound 79], greater than 400 nM; to `COC[C@H](C)NC(=O)c1cc(-c2cnc(C(F)(F)F)s2)nn(-c2cnn(C)c2)c1=O` [Compound 80], greater than 400 nM.
As for `COC[C@H](C)NC(=O)c1cc(-c2ccc(C#N)cc2)nn(-c2cnn(C)c2)c1=O` [Compound 83], the IC50 is greater than 400 nM.
To `COC[C@H](C)NC(=O)c1cc(-c2ccc(Cl)cc2F)nn(-c2cnn(C)c2)c1=O` [Compound 85] belongs greater than 400 nM; to `COC[C@H](C)NC(=O)c1cc(-c2cnc(C(C)=O)s2)nn(-c2cnn(C)c2)c1=O` [Compound 87], greater than 400 nM.
With `COC[C@H](C)NC(=O)c1cc(-c2cnc(C(C)C)s2)nn(-c2cnn(C)c2)c1=O` [Compound 88] the figure was less than 100 nM.
For `COC[C@H](C)NC(=O)c1cc(-c2cnc(N(C)C)nc2)nn(-c2cnn(C)c2)c1=O` [Compound 89], the IC50 was in the range of 100 to 400 nM.
To `COC[C@H](C)NC(=O)c1cc(-c2cnc(N)nc2)nn(-c2cnn(C)c2)c1=O` [Compound 91] belongs greater than 400 nM.
To `CNC(=O)C(C)(C)NC(=O)c1cc(-c2ccc(Cl)cc2)nn(-c2cccc(F)c2)c1=O` [Compound 96] belongs less than 100 nM; to `COC[C@H](C)NC(=O)c1cc(-c2ccc(F)c(Cl)c2)nn(-c2cnn(C)c2)c1=O` [Compound 102], greater than 400 nM.
To `COC[C@H](C)NC(=O)c1cc(-c2ccc(F)c(F)c2)nn(-c2cnn(C)c2)c1=O` [Compound 103] belongs greater than 400 nM; to `COC[C@H](C)NC(=O)c1cc(-c2cccc(Cl)c2)nn(-c2cnn(C)c2)c1=O` [Compound 104], less than 100 nM.
For the compound `COC[C@H](C)NC(=O)c1cc(-c2cccc(F)c2)nn(-c2cnn(C)c2)c1=O` [Compound 105], the half-inhibitory concentration (IC50) is greater than 400 nM.
With `COC[C@H](C)NC(=O)c1cc(-c2ccc(F)cc2Cl)nn(-c2cnn(C)c2)c1=O` [Compound 107] the figure was greater than 400 nM; with `COC[C@H](C)NC(=O)c1cc(-c2ccccc2F)nn(-c2cnn(C)c2)c1=O` [Compound 108], greater than 400 nM.
To `COC[C@H](C)NC(=O)c1cc(-c2ccc(F)cc2F)nn(-c2cnn(C)c2)c1=O` [Compound 109] belongs greater than 400 nM; to `COC[C@H](C)NC(=O)c1cc(N2CC3(CCCC3)C2)nn(-c2cnn(C)c2)c1=O` [Compound 110], greater than 400 nM.
With `COC[C@H](C)NC(=O)c1cc(-c2ccc3c(c2)CCCO3)nn(-c2cnn(C)c2)c1=O` [Compound 111], the IC50 was greater than 400 nM.
To `COC[C@H](C)NC(=O)c1cc(N2CCC(C)CC2)nn(-c2cnn(C)c2)c1=O` [Compound 114] belongs greater than 400 nM; to `COC[C@H](C)NC(=O)c1cc(C2CCCCC2)nn(-c2cnn(C)c2)c1=O` [Compound 115], greater than 400 nM; to `COC[C@H](C)NC(=O)c1cc(N2CCC3(CCCC3)CC2)nn(-c2cnn(C)c2)c1=O` [Compound 116], greater than 400 nM.
